Laboratory results taken from US20170107531A1, “ISOLATED NUCLEIC ACIDS AND QU[…] LOCI (QTL) FROM S. HA[…] METHODS OF USE THEREOF FOR […] BACTERIAL SPECK DISEASE IN TOMATO AND OTHER PLANTS” (Boyce Thompson Institute, priority 2015, published 2017).

How the values were obtained:
[1] = tested on: reactive oxygen species (ROS) in LA2109; experiment: Reactive oxygen species (ROS) elicitation by MAMP peptides, luminescence-based assay; format: cell-based, Solanum habrochaites accession LA2109; conditions: for ROS elicitation (relative light units): LA2109, FIG. 3C; for PTI-eliciting activity of synthetic peptide: FIG. 2D, FIGS. 3C-E, also Cai et al., 2011
Method: FIG. 3A-FIG. 3E. […] (FIG. 3A) Bacterial speck disease on leaves of LA2109 four days after inoculation with Pst19 or Pst19ΔavrPtoB. (FIG. 3B) Bacterial populations of Pst19 and Pst19ΔavrPtoB in leaves of LA2109. Error bars indicate standard deviation. Testing the possible response of LA2109 to FlgII-28, effector HopAO1, and coronatine. […] ROS was measured as relative light units using a luminescence-based assay. […] Strain NY-T1 was included as a virulent control. All strains were inoculated at 2×10^5 CFU/mL. (FIG. 3E) Coronatine (1.25 nM) was syringe-infiltrated into leaves of LA2109 and Moneymaker (red arrows). Leaves of LA2109 were not observably more sensitive to this phytotoxin.

[2] = tested on: Solyc02g072470 transcript abundance; experiment: Solyc02g072470 transcript abundance in leaves after MAMP treatment (qRT-PCR), RG-PtoS; format: in vivo, tomato (Rio Grande RG-PtoS)
Method: (§1) Two lateral leaflets on the second leaf of 3-week old tomato plants were syringe-infiltrated with 1 uM FlgII-28 ([…]) (SEQ ID NO. 1) (Cal, et al., 2011) or 10 uM Csp22 ([…]) (SEQ ID NO. 2) (Felix and Boller, 2003) and harvested 6 hrs later. Tissue samples were immediately frozen in liquid nitrogen and kept at −80° C. until use. Six-week-old plants were inoculated with 10^5 colony-forming units (CFU)/mL P. syringae pv. tomato T1 by vacuum infiltration for the visual monitoring of disease symptoms and 10^4 CFU/mL for the measurement of bacterial populations. For each replicate, three leaf discs were collected and combined; each experiment involved replicates from three independent plants.
(§2) Leaf tissue was ground in liquid nitrogen and total RNA was extracted with TRIzol reagent following the manufacturer's instructions (Life Technologies, cat. #15596-018). The concentration of total RNA was determined with a Nanodrop spectrophotometer (Thermo Scientific Co.). RNA (lug) was treated with TURBO DNA-free™ Kit (Life Technologies, cat. AM1907M) and tested for DNA contamination by amplifying SlCBL1 (Solyc12g015870) for 25 cycles; no PCR product was detected. The RNA was then used for reverse transcription PCR (RT-PCR). […] 1 μl and 0.4 μl of cDNA templates were used for RT-PCR and quantitative-RT-PCR (qRT-PCR), respectively. […]

[3] = tested on: Solyc02g072470 transcript abundance; experiment: Solyc02g072470 transcript abundance in leaves after MAMP treatment (qRT-PCR), LA2109; format: in vivo, Solanum habrochaites accession LA2109
Method: as §1, §2

[4] = tested on: reactive oxygen species (ROS) in LA2109; conditions: Veluchamy et al., 2014; cited from earlier work
[5] = 1 uM FlgII-28, 6 hours after treatment, vs 10 mM MgCl2 mock
[6] = 10 uM Csp22, 6 hours after treatment

| Substance | ROS elicitation (relative light units) [1] | PTI-eliciting activity of synthetic peptide [1] | also measured |
| --- | --- | --- | --- |
| FlgII-28 from NY-T1: FlgII-28 region of NY-T1 flagellin, phenylalanine at position 16 instead of serine (SEQ ID NO: 76) (QTMAIKNANDGMSLAQTAEGALQESTNILQRMRELAVQFRNDSNSSTDRDALNKEFTAMS; FlgII-28 region) | inactive | – | – |
| FlgII-28 from T1: synthetic peptide of the FlgII-28 region of Pst strain T1 flagellin (SEQ ID NO: 75) (QTMAIKNANDGMSLAQTAEGALQESTNILQRMRELAVQSRNDSNSSTDRDALNKEFTAMS; FlgII-28 region) | same level | fully active | – |
| ESTNILQRMRELAVQSRNDSNSATDREA (FlgII-28) | – | – | Increase of Solyc02g072470 transcript abundance [2, 5]: 4 fold; Increase of Solyc02g072470 transcript abundance [3, 5]: 1.5 fold |
| FlgII-28 from DC3000: synthetic peptide of the FlgII-28 region of Pst strain DC3000 flagellin (SEQ ID NO: 77) (QTMAIKNANDGMSLAQTAEGALQESTNILQRMRELAVQSRNDSNSATDREALNKEFTAMS; FlgII-28 region) | same level | fully active | – |
| AVGTVKWFNAEKGFGFITPDDG (Csp22) | – | – | Effect on Solyc02g072470 transcript abundance [2, 6]: no effect; ROS response to Csp22, LA2109 compared to RG-PtoS [4]: higher ROS response; Effect on Solyc02g072470 transcript abundance [3, 6]: significantly induced |
